Key:
CYP3A4 = biological target: T1, CYP3A4 (Homo sapiens, UniProt P08684); test: Cytochrome P450 (CYP450) inhibition assay, fluorescence-based; assay type: in vitro ADME; settings: recombinant CYP3A4 (P450 Baculosomes), probe Vivid substrate (fluorogenic)
T1 construct: purchased Invitrogen Corporation (Vivid CYP450 Screening Kit)

sodium channel = test: Guanidine influx assay; assay type: cell-based, human or rat; settings: known cell line that expresses a sodium channel; read-out: IC50 Activity Level
Text: This example describes an in vitro assay for testing and profiling test agents against human or rat sodium channels stably expressed in cells of either an endogenous or recombinant origin. The assay is also useful for determining the IC50 of a sodium channel blocking compound. The assay is based on the guanidine flux assay described by Reddy, N. L., et al., J. Med. Chem. (1998), 41(17):3298-302.
The guanidine influx assay is a radiotracer flux assay used to determine ion flux activity of sodium channels in a high-throughput microplate-based format. The assay uses ^14C-guanidine hydrochloride in combination with various known sodium channel modulators, to assay the potency of test agents. Potency is determined by an IC50 calculation. Selectivity is determined by comparing potency of the compound for the channel of interest to its potency against other sodium channels (also called ‘selectivity profiling’).
Each of the test agents is assayed against cells that express the channels of interest. Voltage gated sodium channels are either TTX sensitive or insensitive. This property is useful when evaluating the activities of a channel of interest when it resides in a mixed population with other sodium channels. The following Table 1 summarizes cell lines useful in screening for a certain channel activity in the presence or absence of TTX.
It is also possible to employ recombinant cells expressing these sodium channels. Cloning and propagation of recombinant cells are known to those skilled in the art (see, for example, Klugbauer, N, et al., EMBO J. (1995), 14(6):1084-90; and Lossin, C., et al., Neuron (2002), 34, pp. 877-884).
Cells expressing the channel of interest are grown according to the supplier or in the case of a recombinant cell in the presence of selective growth media such as G418 (Gibco/Invitrogen). The cells are disassociated from the culture dishes with an enzymatic solution (1×) Trypsin/EDTA (Gibco/Invitrogen) and analyzed for density and viability using haemocytometer (Neubauer). Disassociated cells are washed and resuspended in their culture media then plated into Scintiplates (Beckman Coulter Inc.) (approximately 100,000 cells/well) and incubated at 37° C./5% CO2. for 20-24 hours. After an extensive wash with Low sodium HEPES-buffered saline solution (LNHBSS) (150 mM Choline Chloride, […] (Sigma), 1 mM Calcium Chloride, 5 mM Potassium Chloride, 1 mM Magnesium Chloride, 10 mM Glucose) agents diluted with LNHBSS are added to each well. (Varying concentrations of test agent may be used). The activation/radiolabel mixture contains aconitine (Sigma) to increase the percentage of time that the sodium channels are open, and ^14C-guanidine hydrochloride (ARC) to measure flux through the voltage-gated sodium channels.
After loading the cells with test agent and activation/radiolabel mixture, the Scintiplates are incubated at ambient temperature. Following the incubation, the Scintplates are extensively washed with LNHBSS supplemented with guanidine (Sigma). The Scintiplates are dried and then counted using a Wallac MicroBeta TriLux (Perkin-Elmer Life Sciences). The ability of the test agent to block sodium channel activity is determined by comparing the amount of ^14C-guanidine present inside the cells expressing the different sodium channels.
The IC50 value of a test agent for a specific sodium channel may be determined using the above general method. […] Typically the mid-point concentration of test agent is set at 1 μM, and sequential concentrations of half dilutions greater or smaller are applied (e.g. 0.5 μM; 5 μM and 0.25 μM; 10 μM and 0.125 μM; 20 μM etc.). The IC50 curve is calculated using the 4 Parameter Logistic Model or Sigmoidal Dose-Response Model formula (fit=(A+((B−A)/(1+((C/x)^D)))).
The fold selectivity, factor of selectivity or multiple of selectivity, is calculated by dividing the IC50 value of the test sodium channel by the reference sodium channel, for example, NaV1.5. […]

[1] = system: inactivated state of the channel of interest (sodium channel); test: Electrophysiological assay (whole cell voltage clamp); assay type: cell-based; settings: affinity for the inactivated state of the channel
Experimental: Cells expressing the channel of interest are cultured in DMEM growth media (Gibco) with 0.5 mg/mL G418, +/−1% PSG, and 10% heat-inactivated fetal bovine serum at 37° C. and 5% CO2. For electrophysiological recordings, cells are plated on 10 mm dishes.
Whole cell recordings are examined by established methods of whole cell voltage clamp (Bean et al., op. cit.) using an Axopatch 200B amplifier and Clampex software (Axon Instruments, Union City, Calif.). All experiments are performed at ambient temperature. Electrodes are fire-polished to resistances of 2-4 Mohms Voltage errors and capacitance artifacts are minimized by series resistance compensation and capacitance compensation, respectively. Data are acquired at 40 kHz and filtered at 5 kHz. The external (bath) solution consists of: NaCl (140 mM), KCl (5 mM), CaCl2 (2 mM), MgCl2 (1 mM), HEPES (10 mM) at pH 7.4. The internal (pipette) solution consists of (in mM): NaCl (5), CaCl2 (0.1), MgCl2 (2), CsCl (10), CsF (120), HEPES (10), EGTA (10), at pH 7.2.
To estimate the steady-state affinity of compounds for the resting and inactivated state of the channel (Kr and Ki, respectively), 12.5 ms test pulses to depolarizing voltages from −60 to +90 m V from a holding potential of −120 m V is used to construct current-voltage relationships (I-V curves). A voltage near the peak of the IV-curve (−30 to 0 m V) is used as the test pulse throughout the remainder of the experiment. Steady-state inactivation (availability) curves are then constructed by measuring the current activated during a 8.75 ms test pulse following 1 second conditioning pulses to potentials ranging from −120 to −10 mV.
The steady-state voltage-dependence of binding of a compound to a sodium channel is determined by measuring the blockage of the ionic current at two holding potentials. Binding to rested-state channels is determined by using a holding potential of −120 mV, so that maximal availability is achieved. Binding to inactivated-state channels is evaluated at a holding potential such that only 10% of the channels are available to open. The membrane potential is held at this voltage for at least 10 seconds so that drug binding can equilibrate.
The apparent dissociation constant at each voltage is calculated with the equation:
[formula] where Kd is the dissociation constant (either Kr or Ki), and [Drug] is the concentration of the test compound.
The Example numbers provided in Table 3 correspond to the Examples herein: […]

CYP2C19 = CYP2C19 (Homo sapiens, UniProt P33261)
CYP2C19, sequence (P33261 whole entry): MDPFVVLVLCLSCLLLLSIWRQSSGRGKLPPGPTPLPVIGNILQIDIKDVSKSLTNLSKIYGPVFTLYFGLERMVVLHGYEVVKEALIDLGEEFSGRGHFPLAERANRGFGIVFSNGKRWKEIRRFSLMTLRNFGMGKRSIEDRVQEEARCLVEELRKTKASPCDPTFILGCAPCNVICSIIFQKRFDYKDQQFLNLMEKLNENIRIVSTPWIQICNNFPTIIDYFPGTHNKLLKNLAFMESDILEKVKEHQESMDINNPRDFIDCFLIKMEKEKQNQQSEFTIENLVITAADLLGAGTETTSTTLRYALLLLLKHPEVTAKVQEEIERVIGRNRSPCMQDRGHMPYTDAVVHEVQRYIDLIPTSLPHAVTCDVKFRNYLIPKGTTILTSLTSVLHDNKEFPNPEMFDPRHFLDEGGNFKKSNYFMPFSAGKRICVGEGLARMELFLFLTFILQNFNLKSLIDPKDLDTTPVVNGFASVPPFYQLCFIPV

CYP2C9 = CYP2C9 (Homo sapiens, UniProt P11712)
CYP2C9, sequence (P11712 whole entry): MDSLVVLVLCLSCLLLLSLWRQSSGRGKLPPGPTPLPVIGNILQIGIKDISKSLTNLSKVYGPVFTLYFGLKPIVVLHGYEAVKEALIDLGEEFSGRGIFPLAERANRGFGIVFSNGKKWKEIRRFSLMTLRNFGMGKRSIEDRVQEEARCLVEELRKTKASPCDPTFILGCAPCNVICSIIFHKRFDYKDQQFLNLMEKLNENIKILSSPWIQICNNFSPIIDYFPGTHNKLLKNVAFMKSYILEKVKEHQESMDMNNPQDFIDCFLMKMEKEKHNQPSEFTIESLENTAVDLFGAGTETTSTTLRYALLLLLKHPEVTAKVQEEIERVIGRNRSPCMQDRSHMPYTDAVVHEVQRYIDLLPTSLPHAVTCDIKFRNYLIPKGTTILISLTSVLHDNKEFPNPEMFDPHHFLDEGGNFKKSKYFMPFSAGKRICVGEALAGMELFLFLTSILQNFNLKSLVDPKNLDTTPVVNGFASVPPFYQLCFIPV

SK-N-BE2C (Nav1.8) = SK-N-BE2C (Nav1.8) (Homo sapiens, UniProt Q9Y5Y9); assay type: cell-based
L6 (Nav1.4 and 1.5) = assay type: cell-based, rat
[2] = system: SH-SY5Y (Nav1.9 and Nav1.7); assay type: cell-based, Human
PC12 (Nav1.2) = PC12 (Nav1.2) (Rattus norvegicus, UniProt P04775)
CHO-K1 (Nav1.4) = CHO-K1 (Nav1.4) (Cricetulus griseus, UniProt A0A9J7H6F9); assay type: cell-based, Chinese Hamster
CHO-K1 (Nav1.4), sequence (A0A9J7H6F9 1-1930): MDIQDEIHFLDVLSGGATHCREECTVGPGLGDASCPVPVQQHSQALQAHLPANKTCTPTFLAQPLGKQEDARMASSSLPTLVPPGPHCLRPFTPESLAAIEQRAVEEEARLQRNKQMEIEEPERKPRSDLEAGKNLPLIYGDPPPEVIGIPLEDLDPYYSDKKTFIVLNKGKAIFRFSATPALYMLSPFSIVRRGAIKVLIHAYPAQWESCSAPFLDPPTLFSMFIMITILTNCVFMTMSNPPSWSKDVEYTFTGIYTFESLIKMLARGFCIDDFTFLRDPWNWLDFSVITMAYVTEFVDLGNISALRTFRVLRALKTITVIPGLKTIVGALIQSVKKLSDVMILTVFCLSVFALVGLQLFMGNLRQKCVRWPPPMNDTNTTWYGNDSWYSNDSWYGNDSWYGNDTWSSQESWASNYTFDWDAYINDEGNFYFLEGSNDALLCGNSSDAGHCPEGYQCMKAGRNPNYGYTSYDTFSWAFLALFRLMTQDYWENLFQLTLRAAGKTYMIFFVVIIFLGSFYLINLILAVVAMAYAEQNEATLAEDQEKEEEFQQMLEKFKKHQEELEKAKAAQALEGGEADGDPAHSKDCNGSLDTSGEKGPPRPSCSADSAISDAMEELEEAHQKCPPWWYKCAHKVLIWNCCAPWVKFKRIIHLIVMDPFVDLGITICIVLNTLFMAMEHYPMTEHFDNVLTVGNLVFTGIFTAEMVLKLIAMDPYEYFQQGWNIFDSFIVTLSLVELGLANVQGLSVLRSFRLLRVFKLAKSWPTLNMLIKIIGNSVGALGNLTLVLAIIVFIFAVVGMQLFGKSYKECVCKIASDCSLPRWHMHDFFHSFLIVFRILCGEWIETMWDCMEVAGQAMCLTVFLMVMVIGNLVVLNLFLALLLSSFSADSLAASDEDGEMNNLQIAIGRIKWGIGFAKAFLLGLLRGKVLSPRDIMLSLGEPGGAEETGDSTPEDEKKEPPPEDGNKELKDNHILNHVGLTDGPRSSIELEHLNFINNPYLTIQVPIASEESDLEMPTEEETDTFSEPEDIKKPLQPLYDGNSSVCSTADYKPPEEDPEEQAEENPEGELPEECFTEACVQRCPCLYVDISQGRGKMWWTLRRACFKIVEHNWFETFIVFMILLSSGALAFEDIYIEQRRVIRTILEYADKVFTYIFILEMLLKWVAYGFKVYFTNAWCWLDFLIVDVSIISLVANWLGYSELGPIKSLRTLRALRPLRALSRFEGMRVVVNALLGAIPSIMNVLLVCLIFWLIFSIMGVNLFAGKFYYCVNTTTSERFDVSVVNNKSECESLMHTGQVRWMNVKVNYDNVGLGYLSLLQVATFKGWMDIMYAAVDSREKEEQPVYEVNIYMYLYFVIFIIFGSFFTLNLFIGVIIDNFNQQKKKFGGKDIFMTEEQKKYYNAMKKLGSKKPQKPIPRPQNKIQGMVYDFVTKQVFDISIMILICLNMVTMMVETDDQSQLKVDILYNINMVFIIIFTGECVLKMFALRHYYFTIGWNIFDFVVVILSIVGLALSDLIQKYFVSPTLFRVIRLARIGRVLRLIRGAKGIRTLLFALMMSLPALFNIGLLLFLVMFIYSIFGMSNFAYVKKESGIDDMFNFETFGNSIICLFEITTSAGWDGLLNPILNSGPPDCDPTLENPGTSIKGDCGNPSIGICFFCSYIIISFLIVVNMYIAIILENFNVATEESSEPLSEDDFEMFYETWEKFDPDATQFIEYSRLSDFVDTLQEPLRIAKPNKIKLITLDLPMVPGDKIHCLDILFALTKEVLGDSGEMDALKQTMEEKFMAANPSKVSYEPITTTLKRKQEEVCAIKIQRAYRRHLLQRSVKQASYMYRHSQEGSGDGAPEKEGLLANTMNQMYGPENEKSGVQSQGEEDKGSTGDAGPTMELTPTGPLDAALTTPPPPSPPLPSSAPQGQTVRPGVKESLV

T1 sequence (P08684 whole entry): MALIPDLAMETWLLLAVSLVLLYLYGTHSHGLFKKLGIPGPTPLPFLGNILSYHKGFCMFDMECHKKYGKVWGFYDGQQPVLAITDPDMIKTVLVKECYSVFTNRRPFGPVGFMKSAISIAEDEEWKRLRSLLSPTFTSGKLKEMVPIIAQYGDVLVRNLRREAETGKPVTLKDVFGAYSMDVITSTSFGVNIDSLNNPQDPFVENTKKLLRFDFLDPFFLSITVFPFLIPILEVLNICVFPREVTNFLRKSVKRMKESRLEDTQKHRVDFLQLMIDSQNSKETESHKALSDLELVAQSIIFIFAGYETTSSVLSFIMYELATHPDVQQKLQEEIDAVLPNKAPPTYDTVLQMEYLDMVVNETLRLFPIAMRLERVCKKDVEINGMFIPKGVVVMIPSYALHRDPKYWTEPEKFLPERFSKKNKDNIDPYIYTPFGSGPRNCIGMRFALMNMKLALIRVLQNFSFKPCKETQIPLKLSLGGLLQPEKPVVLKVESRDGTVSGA

What does the source list for `NC(=O)COc1ccc(CN2C(=O)C3(COc4cc5c(cc43)OCCO5)c3ccccc32)cc1` (stereo not shown) [Example 13.2, 2-{4-[(2′-oxo-2,3-dihydrospiro[furo[2,3-g][1,4]benzodioxine-8,3′-indol]-1′(2′H)-yl)methyl]phenoxy}acetamide]?
inhibition at 10 µM (CYP3A4): > 50%; IC50 (sodium channel): 1 to 100 nM; melting point: 225 to 227 °C; Ki [1]: > 300 nM

Which inhibition at 10 µM (CYP3A4) does the source give for `CN(C)CCOc1ccc(CN2C(=O)C3(COc4cc5c(cc43)OCCO5)c3ccccc32)cc1` (stereo not shown) [Example 13.4, 1′-{4-[2-(dimethylamino)ethoxy]benzyl}-2,3-dihydrospiro[furo[2,3-g][1,4]benzodioxine-8,3′-indol]-2′(1′H)-one] here?
The inhibition at 10 µM was over 50%.

And the IC50 (sodium channel)?
The IC50 was 100 to 1000 nM.

And the melting point?
Its melting point is 77 to 79 °C.

And the Ki [1]?
The Ki was under 300 nM.

For `CCOC(=O)COc1cccc(CN2C(=O)C3(COc4cc5c(cc43)CCO5)c3ccccc32)c1` (stereo not shown) [Example 14, ethyl {3-[(2′-oxo-5,6-dihydrospiro[benzo[1,2-b:5,4-b′]difuran-3,3′-indol]-1′(2′H)-yl)methyl]phenoxy}acetate], which inhibition at 10 µM (CYP3A4) is on record?
The inhibition at 10 µM was over 50%.

And the IC50 (sodium channel)?
The IC50 was 100 to 1000 nM.

What about the melting point of the same molecule?
The melting point was 45 to 46 °C.

What about the Ki [1] of the same molecule?
The Ki was over 300 nM.

Which results are given for `O=C1N(Cc2ccc(OCCO)cc2)c2ccccc2C12COc1cc3c(cc12)OCCO3` (stereo not shown) [Example 15.3, 1′-[4-(2-hydroxyethoxy)benzyl]-2,3-dihydrospiro[furo[2,3-g][1,4]benzodioxine-8,3′-indol]-2′(1′H)-one]?
inhibition at 10 µM (CYP3A4): < 50%; melting point: 196 to 197 °C; Ki [1]: > 300 nM

With `CC(=O)N1CCN(c2ccc(OCC3COC(Cn4ccnc4)(c4ccc(Cl)cc4Cl)O3)cc2)CC1` (stereo not shown) [Ketoconazole] as the molecule, how does the “% Inhibition in 10 μM assay” value (CYP2C19) read?
The value was 65 +/− 10%.

Which “% Inhibition in 10 μM assay” value (CYP2C9) does the source give for `Nc1ccc(S(=O)(=O)Nc2ccnn2-c2ccccc2)cc1` [Sulfaphenazole] here?
The value was 50 +/− 15%.

Which “block of increase in [14C] guanidine influx” value (“block of increase” for short) (SK-N-BE2C (Nav1.8)) does the source give for `NC1=N[C@H](O)[C@H]2[C@H]3O[C@]4(O)O[C@@H]([C@@H](O)[C@@]2(N1)[C@@H]4O)[C@]3(O)CO` [TTX, tetrodotoxin] here?
The value was “TTX partially blocked influx”.

What about the “block of increase” value (L6 (Nav1.4 and 1.5)) of the same molecule?
Its value is “partially blocked by TTX at 100 nM”.

And the “block of increase” value [2]?
The value was “background was partially blocked”.

What about the “block of increase” value (PC12 (Nav1.2)) of the same molecule?
The value was “guanidine influx was completely”.

And the “block of increase” value (CHO-K1 (Nav1.4))?
The value was “completely blocked using TTX”.

From US8101647B2, “Spiro-oxindole compounds and their use as therapeutic agents” (Xenon Pharmaceuticals Inc., priority 2008, dated 2012)
